Experimental data: PubChem BioAssay (NCI)
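A five-concentration, 48-hour dose response in 96-well plates underlies each endpoint, interpolated linearly between surrounding concentrations. GI50: concentration for 50% inhibition of growth. The concentration for full growth arrest is given as TGI.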

Columns and labels:
Experiment in all cases: inhibition of tumour cell growth, NCI panel, 48 h
A498 renal = test system: A498 renal
IGROV1 ovarian = test system: IGROV1 ovarian
K-562 leukemia = test system: K-562 leukemia
MALME-3M melanoma = test system: MALME-3M melanoma
MDA-MB-231 breast = test system: MDA-MB-231 breast
SK-MEL-5 melanoma = test system: SK-MEL-5 melanoma
SK-OV-3 ovarian = test system: SK-OV-3 ovarian
SNB-19 CNS = test system: SNB-19 CNS
SNB-75 CNS = test system: SNB-75 CNS
UACC-257 melanoma = test system: UACC-257 melanoma

In the case of `CCCCCCNC(=O)Oc1ccc(/C(=C(/C)Cc2ccc(OC)cc2)c2ccc(OCCCN(C)C)cc2)cc1`, the GI50 (A498 renal) is reported as 14.1 µM, the TGI (A498 renal) is reported as 27.3 µM and the GI50 (IGROV1 ovarian) is reported as 16.3 µM. For the same compound, the TGI (IGROV1 ovarian) was 32.7 µM, the GI50 (K-562 leukemia) was 3.74 µM and the TGI (K-562 leukemia) was 19.1 µM. It also gave a GI50 (MALME-3M melanoma) of 15.3 µM, a TGI (MALME-3M melanoma) of 30.5 µM and a GI50 (MDA-MB-231 breast) of 15.3 µM. It also gave a TGI (MDA-MB-231 breast) of 29.9 µM, a GI50 (SK-MEL-5 melanoma) of 16.4 µM and a TGI (SK-MEL-5 melanoma) of 30.1 µM. The GI50 (SK-OV-3 ovarian) was 16.7 µM, the TGI (SK-OV-3 ovarian) was 30.9 µM and the GI50 (SNB-19 CNS) was 17.2 µM. The TGI (SNB-19 CNS) was 31.5 µM, the GI50 (SNB-75 CNS) was 12.6 µM and the TGI (SNB-75 CNS) was 25.6 µM. It also gave a GI50 (UACC-257 melanoma) of 19.3 µM and a TGI (UACC-257 melanoma) of 35.3 µM.
`N[C@@H]1C(=O)N2C(C(=O)OC(c3ccccc3)c3ccccc3)=C(CCl)CS[C@H]12` showed a GI50 (A498 renal) of over 100 µM, a TGI (A498 renal) of over 100 µM and a GI50 (IGROV1 ovarian) of 47.4 µM. The TGI (IGROV1 ovarian) was over 100 µM, the GI50 (K-562 leukemia) was 15.4 µM and the TGI (K-562 leukemia) was over 89.2 µM. For the same compound, the GI50 (MALME-3M melanoma) was over 74.5 µM, the TGI (MALME-3M melanoma) was over 100 µM and the GI50 (MDA-MB-231 breast) was 25.2 µM. It also gave a TGI (MDA-MB-231 breast) of 63.1 µM, a GI50 (SK-MEL-5 melanoma) of 40.8 µM and a TGI (SK-MEL-5 melanoma) of over 100 µM. The GI50 (SK-OV-3 ovarian) was over 100 µM, the TGI (SK-OV-3 ovarian) was over 100 µM and the GI50 (SNB-19 CNS) was 66.7 µM. It also gave a TGI (SNB-19 CNS) of over 100 µM, a GI50 (SNB-75 CNS) of 47.7 µM and a TGI (SNB-75 CNS) of over 100 µM. For the same compound, the GI50 (UACC-257 melanoma) was over 100 µM and the TGI (UACC-257 melanoma) was over 100 µM.
`COC1=C(C)C(=O)c2c(c(CCCl)c3n2CCC3O)C1=O` (stereo not given) gave a GI50 (A498 renal) of 0.145 µM, a TGI (A498 renal) of 0.313 µM and a GI50 (IGROV1 ovarian) of 2.59 µM. It also gave a TGI (IGROV1 ovarian) of 12.4 µM, a GI50 (K-562 leukemia) of 2.21 µM and a TGI (K-562 leukemia) of over 40.7 µM. For the same compound, the GI50 (MALME-3M melanoma) was 0.23 µM, the TGI (MALME-3M melanoma) was 0.584 µM and the GI50 (MDA-MB-231 breast) was 21.8 µM. For the same compound, the TGI (MDA-MB-231 breast) was 83 µM, the GI50 (SK-MEL-5 melanoma) was 0.148 µM and the TGI (SK-MEL-5 melanoma) was 0.291 µM. It also gave a GI50 (SK-OV-3 ovarian) of 0.412 µM, a TGI (SK-OV-3 ovarian) of 3.37 µM and a GI50 (SNB-19 CNS) of 0.407 µM. For the same compound, the TGI (SNB-19 CNS) was 13.6 µM, the GI50 (SNB-75 CNS) was 0.191 µM and the TGI (SNB-75 CNS) was 0.628 µM. The GI50 (UACC-257 melanoma) was 0.839 µM and the TGI (UACC-257 melanoma) was 3.45 µM.
In the case of `CC(C)N1CCN(Cc2ccc3c(NNC(=O)c4ccccc4)nc4cc(F)ccc4n23)CC1`, the GI50 (A498 renal) is reported as 0.564 µM, the TGI (A498 renal) is reported as 4.12 µM and the GI50 (IGROV1 ovarian) is reported as 0.406 µM. For the same compound, the TGI (IGROV1 ovarian) was 14.1 µM, the GI50 (K-562 leukemia) was 0.379 µM and the TGI (K-562 leukemia) was 3.87 µM. It also gave a GI50 (MALME-3M melanoma) of 0.575 µM, a TGI (MALME-3M melanoma) of 2.4 µM and a GI50 (MDA-MB-231 breast) of 0.497 µM. It also gave a TGI (MDA-MB-231 breast) of 2.48 µM, a GI50 (SK-MEL-5 melanoma) of 0.921 µM and a TGI (SK-MEL-5 melanoma) of 3.11 µM. It also gave a GI50 (SK-OV-3 ovarian) of 0.338 µM, a TGI (SK-OV-3 ovarian) of 15.3 µM and a GI50 (SNB-19 CNS) of 0.537 µM. The TGI (SNB-19 CNS) was 8.07 µM, the GI50 (SNB-75 CNS) was 0.451 µM and the TGI (SNB-75 CNS) was 7.24 µM. It also gave a GI50 (UACC-257 melanoma) of 0.81 µM and a TGI (UACC-257 melanoma) of 11.9 µM.
